Measured values: patent US20240101573A1, “MACROCYCLIC K-RAS G12C INHIBITOR, PREPARATION METHOD THEREFOR AND USE THEREOF” (Abbisko Therapeutics Co., Ltd., priority 2020, published 2024)

Assays:
MIA PaCa-2 = test: Anti-proliferation 2D CTG test (MIA PaCa-2); assay type: cell-based; settings: MIAPACA-2 cells, 500 cells/well, 5 days incubation with compound, CTG readout
Method: (§1) When the cell confluency was 80%, the cells were isolated with 0.25% trypsin. The isolated cells were resuspended in 5 mL of fresh cell culture medium and centrifuged to collect the cells. The number of cells were counted at the same time. Then, the cells were suspended in a culture medium at a moderate concentration. The cells were placed into a 96-well plate with 1500 cells/well for H358 and 500 cells/well for MIAPACA-2. The 96-well plate was placed in an incubator at 37° C. and incubated overnight.
(§2) 2) Day 1: processing of compound
(§3) A 2 mM stock solution was serially diluted at 10 points at a ratio of 1:3. 5× culture medium containing the compound was transferred to the corresponding wells of 96 wells. The final peak concentration of the compound was […], and the final concentration of DMSO was 0.5%. The 96-well plate was placed in the incubator at 37° C. and incubated for 5 days.
(§4) 3) Baseline reading. 4) Day 6: reading of signals
(§5) A detection reagent (CTG) was added at 50 μL/well, and the signals were read in an Envision instrument.
(§6) The percentage of inhibition ([…]) at each compound concentration was calculated based on the signals from the HPE and ZPE control wells contained in each assay plate and the fluorescence signals from individual compound wells. The inhibition rate in the ZPE control wells containing the enzyme and substrate was 0%, and the inhibition rate in the HPE control wells only containing the substrate was […]. By testing the compound in terms of numeric concentration and inhibition percentage, the compound concentration required for […] inhibition (IC50) was determined using a four-parameter logarithmic dose-response equation. The endpoint value (IC50) of the reference compound was evaluated in each experiment as a quality control measure. If the endpoint value was within three times the expected value, the experiment was considered acceptable.

H358 = test: Anti-proliferation 2D CTG test (H358); assay type: cell-based; settings: H358 cells, 1500 cells/well, 5 days incubation with compound, CTG readout
Method: as §1, §2, §3, §4, §5, §6

[1] = Homo sapiens, MIA PaCa-2, 120 h

Structure (SMILES)	IC50 (MIA PaCa-2) [nM]	IC50 (H358) [nM]	IC50 (MIA PaCa-2; [1]) [nM]	IC50 (H358; Homo sapiens, NCI-H358, 120 h) [nM]
C=CC(=O)N1CCN(c2nc(=O)n3c4nc(c(F)cc24)-c2c(F)cccc2OCC(O)C(OC)c2ccnc(C(C)C)c2-3)[C@@H](C)C1 (stereo partly drawn) [Example 26, 2^4-((S)-4-acryloyl-2-methylpiperazin-1-yl)-7-methoxy-2^6,3^6-difluoro-6-hydroxy-1^2-isopropyl-2^1,2^2-dihydro-4-oxa-2(1,7)-pyrido[2,3-d]pyrimidina-1(3,4)-pyridina-3(1,2)-benzocycloheptane-2^2-one]	1	2	–	–
C=CC(=O)N1CCN(c2nc(=O)n3c4nc(c(F)cc24)-c2c(F)cccc2OCC(OC)C(O)c2ccnc(C(C)C)c2-3)[C@@H](C)C1 (stereo partly drawn) [Example 27, 24-((S)-4-acryloyl-2-methylpiperazin-1-yl)-6-methoxy-2^6,3^6-difluoro-7-hydroxy-1^2-isopropyl-2^1,2^2-dihydro-4-oxa-2(1,7)-pyrido[2,3-d]pyrimidina-1(3,4)-pyridina-3(1,2)-benzocycloheptane-2^2-one]	–	–	4	9
C=CC(=O)N1CCN(c2nc(=O)n3c4nc(c(F)cc24)-c2c(F)cccc2OCC(O)C(OCC)c2ccnc(C(C)C)c2-3)[C@@H](C)C1 (stereo partly drawn) [Example 28, 2^4-((S)-4-acryloyl-2-methylpiperazin-1-yl)-7-ethoxy-2^6,3^6-difluoro-6-hydroxy-1^2-isopropyl-2^1,2^2-dihydro-4-oxa-2(1,7)-pyrido[2,3-d]pyrimidina-1(3,4)-pyridina-3(1,2)-benzocycloheptane-2^2-one]	27	28	–	–
C=CC(=O)N1CCN(c2nc(=O)n3c4nc(c(F)cc24)-c2c(F)cccc2OCC(OCC)C(O)c2ccnc(C(C)C)c2-3)[C@@H](C)C1 (stereo partly drawn) [Example 29, 2^4-((S)-4-acryloyl-2-methylpiperazin-1-yl)-6-ethoxy-2^6,3^6-difluoro-7-hydroxy-1^2-isopropyl-2^1,2^2-dihydro-4-oxa-2(1,7)-pyrido[2,3-d]pyrimidina-1(3,4)-pyridina-3(1,2)-benzocycloheptane-2^2-one]	6	6	–	–
C=CC(=O)N1CCN(c2nc(=O)n3c4nc(c(F)cc24)-c2c(F)cccc2OCC(OCC(F)F)C(O)c2ccnc(C(C)C)c2-3)[C@@H](C)C1 (stereo partly drawn) [Example 33, 2^4-((S)-4-acryloyl-2-methylpiperazin-1-yl)-6-(2,2-difluoroethoxy)-2^6,3^6-difluoro-7-hydroxy-1^2-isopropyl-2^1,2^2-dihydro-4-oxa-2(1,7)-pyrido[2,3-d]pyrimidina-1(3,4)-pyridina-3(1,2)-benzocycloheptane-2^2-one]	154	42	–	–
C=CC(=O)N1CCN(c2nc(=O)n3c4nc(c(F)cc24)-c2c(F)cccc2OCC(OC(C)C)C(O)c2ccnc(C(C)C)c2-3)[C@@H](C)C1 (stereo partly drawn) [Example 34, 2^4-((S)-4-acryloyl-2-methylpiperazin-1-yl)-6-isopropoxy-2^6,3^6-difluoro-7-hydroxy-1^2-isopropyl-2^1,2^2-dihydro-4-oxa-2(1,7)-pyrido[2,3-d]pyrimidina-1(3,4)-pyridina-3(1,2)-benzocycloheptane-2^2-one]	7	4	–	–
C=CC(=O)N1CCN(c2nc(=O)n3c4nc(c(F)cc24)-c2c(F)cccc2OCC(OCCF)C(O)c2ccnc(C(C)C)c2-3)[C@@H](C)C1 (stereo partly drawn) [Example 39, (R)-2^4-((S)-4-acryloyl-2-methylpiperazin-1-yl)-2^6,3^6-difluoro-6-(2-fluoroethoxy)-7-hydroxy-1^2-isopropyl-2^1,2^2-dihydro-4-oxa-2(1,7)-pyrido[2,3-d]pyrimidina-1(3,4)-pyridina-3(1,2)-benzocycloheptane-2^2-one]	2	4	–	–
C=CC(=O)N1CCN(c2nc(=O)n3c4nc(c(F)cc24)-c2c(F)cccc2OCC(O)C(OC)c2ccnc(C(C)C)c2-3)[C@@H](C)C1 (stereo partly drawn) [Example 41, (R)-2^4-((S)-4-acryloyl-2-methylpiperazin-1-yl)-7-methoxy-2^6,3^6-difluoro-6-hydroxy-1^2-isopropyl-2^1,2^2-dihydro-4-oxa-2(1,7)-pyrido[2,3-d]pyrimidina-1(3,4)-pyridina-3(1,2)-benzocycloheptane-2^2-one]	2	3	–	–
C=CC(=O)N1CCN(c2nc(=O)n3c4nc(c(F)cc24)-c2c(F)cccc2OCC(O)C(OCC)c2ccnc(C(C)C)c2-3)[C@@H](C)C1 (stereo partly drawn) [Example 43, (R)-2^4-((S)-4-acryloyl-2-methylpiperazin-1-yl)-7-ethoxy-2^6,3^6-difluoro-6-hydroxy-1^2-isopropyl-2^1,2^2-dihydro-4-oxa-2(1,7)-pyrido[2,3-d]pyrimidina-1(3,4)-pyridina-3(1,2)-benzocycloheptane-2^2-one]	6	5	–	–
C=CC(=O)N1CCN(c2nc(=O)n3c4nc(c(F)cc24)-c2c(F)cccc2OCC(OCC)C(O)c2ccnc(C(C)C)c2-3)[C@@H](C)C1 (stereo partly drawn) [Example 45, (R)-2^4-((S)-4-acryloyl-2-methylpiperazin-1-yl)-6-ethoxy-2^6,3^6-difluoro-7-hydroxy-1^2-isopropyl-2^1,2^2-dihydro-4-oxa-2(1,7)-pyrido[2,3-d]pyrimidina-1(3,4)-pyridina-3(1,2)-benzocycloheptane-2^2-one]	2	2	–	–

Other lines, results leading:

IC50 (MIA PaCa-2) [nM]	IC50 (H358) [nM]	IC50 (MIA PaCa-2; [1]) [nM]	IC50 (H358; Homo sapiens, NCI-H358, 120 h) [nM]	Structure (SMILES)
15	36	–	–	C=CC(=O)N1CCN(c2nc(=O)n3c4nc(c(F)cc24)-c2c(F)cccc2OCC(OCCF)C(O)c2ccnc(C(C)C)c2-3)[C@@H](C)C1 (stereo partly drawn) [Example 25, 2^4-((S)-4-acryloyl-2-methylpiperazin-1-yl)-2^6,3^6-difluoro-6-(2-fluoroethoxy)-7-hydroxy-1^2-isopropyl-2^1,2^2-dihydro-4-oxa-2(1,7)-pyrido[2,3-d]pyrimidina-1(3,4)-pyridina-3(1,2)-benzocycloheptane-2^2-one]
69	41	–	–	C=CC(=O)N1CCN(c2nc(=O)n3c4nc(c(F)cc24)-c2c(F)cccc2OCC(O)C(OCC(F)F)c2ccnc(C(C)C)c2-3)[C@@H](C)C1 (stereo partly drawn) [Example 32, 2^4-((S)-4-acryloyl-2-methylpiperazin-1-yl)-7-(2,2-difluoroethoxy)-2^6,3^6-difluoro-6-hydroxy-1^2-isopropyl-2^1,2^2-dihydro-4-oxa-2(1,7)-pyrido[2,3-d]pyrimidina-1(3,4)-pyridina-3(1,2)-benzocycloheptane-2^2-one]
4	11	–	–	C=CC(=O)N1C[C@H](C)N(c2nc(=O)n3c4nc(c(F)cc24)-c2c(F)cccc2OCC(O)C(OCC)c2ccnc(C(C)C)c2-3)C[C@H]1C (stereo partly drawn) [Example 35, 2^4-((2S,5R)-4-acryloyl-2,5-dimethylpiperazin-1-yl)-7-ethoxy-2^6,3^6-difluoro-6-hydroxy-1^2-isopropyl-2^1,2^2-dihydro-4-oxa-2(1,7)-pyrido[2,3-d]pyrimidina-1(3,4)-pyridina-3(1,2)-benzocycloheptane-2^2-one]
–	–	1	1	C=CC(=O)N1C[C@H](C)N(c2nc(=O)n3c4nc(c(F)cc24)-c2c(F)cccc2OCC(OCC)C(O)c2ccnc(C(C)C)c2-3)C[C@H]1C (stereo partly drawn) [Example 36, (R)-2^4-((2S,5R)-4-acryloyl-2,5-dimethylpiperazin-1-yl)-6-ethoxy-2^6,3^6-difluoro-7-hydroxy-1^2-isopropyl-2^1,2^2-dihydro-4-oxa-2(1,7)-pyrido[2,3-d]pyrimidina-1(3,4)-pyridina-3(1,2)-benzocycloheptane-2^2-one]
5	14	–	–	C=CC(=O)N1CCN(c2nc(=O)n3c4nc(c(F)cc24)-c2c(F)cccc2OCC(O)C(OCCF)c2ccnc(C(C)C)c2-3)[C@@H](C)C1 (stereo partly drawn) [Example 37, (R)-2^4-((S)-4-acryloyl-2-methylpiperazin-1-yl)-2^6,3^6-difluoro-7-(2-fluoroethoxy)-6-hydroxy-1^2-isopropyl-2^1,2^2-dihydro-4-oxa-2(1,7)-pyrido[2,3-d]pyrimidina-1(3,4)-pyridina-3(1,2)-benzocycloheptane-2^2-one]
669	977	–	–	C=CC(=O)N1CCN(c2nc(=O)n3c4nc(c(F)cc24)-c2c(F)cccc2OCC(O)C(OC)c2ccnc(C(C)C)c2-3)[C@@H](C)C1 (stereo partly drawn) [Example 42, (S)-2^4-((S)-4-acryloyl-2-methylpiperazin-1-yl)-7-methoxy-2^6,3^6-difluoro-6-hydroxy-1^2-isopropyl-2^1,2^2-dihydro-4-oxa-2(1,7)-pyrido[2,3-d]pyrimidina-1(3,4)-pyridina-3(1,2)-benzocycloheptane-2^2-one]
125	250	–	–	C=CC(=O)N1CCN(c2nc(=O)n3c4nc(c(F)cc24)-c2c(F)cccc2OCC(O)C(OCC)c2ccnc(C(C)C)c2-3)[C@@H](C)C1 (stereo partly drawn) [Example 44, (S)-2^4-((S)-4-acryloyl-2-methylpiperazin-1-yl)-7-ethoxy-2^6,3^6-difluoro-6-hydroxy-1^2-isopropyl-2^1,2^2-dihydro-4-oxa-2(1,7)-pyrido[2,3-d]pyrimidina-1(3,4)-pyridina-3(1,2)-benzocycloheptane-2^2-one]
